Blank lines part the entries; values can stand above or below the molecule they belong to.
Legend:
S-SMase [1] = target: T1, S-SMase (Homo sapiens, UniProt P17405); test: Zn2+ activation of S-SMase in presence of zinc-metalloproteinase inhibitors; format: biochemical
T1 sequence (P17405 47-631): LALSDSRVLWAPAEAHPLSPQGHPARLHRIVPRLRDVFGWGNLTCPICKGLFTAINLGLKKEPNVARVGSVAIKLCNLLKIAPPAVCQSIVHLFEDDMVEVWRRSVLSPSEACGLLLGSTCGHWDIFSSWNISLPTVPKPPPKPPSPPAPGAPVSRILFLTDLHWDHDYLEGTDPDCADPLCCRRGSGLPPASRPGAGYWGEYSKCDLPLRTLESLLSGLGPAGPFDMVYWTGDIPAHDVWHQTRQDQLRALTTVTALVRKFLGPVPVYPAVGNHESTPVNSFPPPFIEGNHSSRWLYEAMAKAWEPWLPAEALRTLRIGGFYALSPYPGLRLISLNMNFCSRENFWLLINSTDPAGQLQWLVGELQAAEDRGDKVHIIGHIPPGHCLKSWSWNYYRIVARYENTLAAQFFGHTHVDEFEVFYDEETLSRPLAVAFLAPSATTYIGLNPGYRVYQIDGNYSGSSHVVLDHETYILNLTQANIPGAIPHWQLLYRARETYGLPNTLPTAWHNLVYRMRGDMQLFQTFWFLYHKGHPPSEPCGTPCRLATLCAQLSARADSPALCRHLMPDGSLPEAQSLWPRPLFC
Protocol: SMase Assay—As previously described (Schissel et al., 1996), the standard 200-μl assay mixture consisted of up to 40 μl of sample (conditioned media or homogenized cells; see above) and a volume of assay buffer (0.1 M sodium acetate, pH 5.0) to bring the volume to 160 μl. The reaction was initiated by the addition of 40 μl substrate (50 pmol [^3H]sphingomyelin) in 0.25 M sucrose containing 3% Triton X-100 (final concentration of Triton X-100 in the 200-μl assay mix=0.6%). When added, the final concentrations of EDTA and Zn^2+ were 5 mM and 0.1 mm, respectively, unless indicated otherwise. […] The ceramide spots were scraped and directly counted to quantify [^3H]ceramide. Typically, the assay reactions contained approximately 20 μg of cellular homogenate protein and a volume of conditioned media derived from a quantity of cells equivalent to approximately 50 μg of cellular protein.
One question was how L- and S-SMase acquire their apparent differences in zinc-dependency. One explanation would be that the secreted form requires a Zn^2+-dependent co-factor. Because many lysosomal enzymes undergo proteolytic activation (Hasilik, 1992), an obvious candidate for a Zn^2+-dependent co-factor would be a zinc-metalloproteinase. The results of five experiments, however, ruled out this possibility. First, Zn^2+-activated S-SMase can be subsequently inactivated by Zn^2+-chelation (see below); reversibility of Zn^2+-induced activation is not consistent with proteolytic activation. […] Third, mammalian zinc-metalloproteinases require Ca^2+ as well as Zn^2+, for activity (Reynolds, 1996), whereas Ca^2+ is not a requirement for the activation of S-SMase (Schissel et al., 1996).

S-SMase [2] = target: T1, S-SMase; test: S-SMase treatment of [3H]SM-LDL and [3H]SM-emulsions at pH 7.4; format: biochemical; set-up: endogenous in cells; host or cells: primary HUVEC, 24-h serum-free conditioned medium
Protocol: [^3H]SM-emulsions. [^3H]SM-emulsions with a lipid composition similar to human LDL were prepared as follows: 5.4 mg cholesteryl oleate, 0.48 mg triolein, 1.08 mg free cholesterol, 2.04 mg phosphatidylcholine, 0.96 mg sphingomyelin, and 50 μCi [N-palmitoyl-9,10^−3H]sphingomyelin were all added in chloroform to a sonication vial and the solvent completely evaporated by exposure to a stream of nitrogen, followed by the high vacuum of a lyophilizer. The dried lipids were resuspended in 3 mL of buffer containing 150 mM NaCl, 0.3 mM EDTA pH 7.4 and sonicated under a stream of argon at 40° C. until translucent (approximately 90 min) The sonicated material was then centrifuged twice at 15,000×g to pellet any titanium shed from the sonication probe. SM-rich emulsions were prepared exactly as above except that 1.2 mg of phosphatidylcholine and 1.8 mg of SM were used, and sonication time was increased to 120 min. [^3H]SM-emulsions were enriched with apo CIII based on the method of Ahmad et al. (Ahmad et al., 1986). Briefly, [^3H]SM-emulsions (0.4 mL; 182 nmol SM) were incubated with 200 μg apo CIII (22.5 nmol) for 2 h at 40° C. A portion of the emulsions were re-isolated from free ape CIII using ultrafiltration (Clavey et al., 1995) as follows: the crude emulsion-apo CIII mixture was diluted to 2 mL with buffer containing 150 mM NaCl, 0.3 mM EDTA pH 7.4 and ultra filtered and concentrated to 0.2 mL using a CENTRICON® 30 (molecular weight cut-off=30,000); the concentrated emulsions were then diluted to 2 mL and the process was repeated 5 times. [^3H]SM-emulsions run through the same enrichment and re-isolation protocols in the absence of apo CIII served as the control for the experiments in FIG. 11A.
S-SMase. The source of S-SMase was serum-free conditioned medium from DG44 CHO cells stably transfected with the human acid SMase cDNA (Schissel et al., 1996; Schuchman et al., 1991). […] Cells were plated in 100-mm dishes and cultured for 48 h in DMEM/FBS/PSG. The cells were then changed to low protein serum-free media for 12 h. washed 3 times with PBS, and finally incubated for 18 h in fresh serum-free media (6 mL per 100-mm dish) The “18-h conditioned medium” was then collected, centrifuged at 1000×g to pellet any cells and, except where indicated, ZnCl2 (final concentration=100 μM) was added to fully activate and stabilize S-SMase; this S-SMase-containing conditioned media was then used fresh to treat LDL and lipid emulsions.
S-SMase Treatment of LDL and Emulsions. The standard incubation mixture consisted of up to 50 μl of sample (LDL or emulsions). […] The ceramide spots were scraped and directly counted to quantify [^3H]ceramide. In all other samples ceramide was determined as described above.

[3] = system: S-SMase secretion by HUVECs; test: Cytokine regulation of S-SMase secretion by HUVECs (SMase activity in conditioned media); format: cell-based, human; details: 18 h, interferon-β 1000 units/ml, IL-4 10 ng/ml
Protocol: Conditioned media (FIG. 23A) and cell homogenates (FIG. 23B) from these cells were then assayed for SMase activity in the presence or absence of 0.1 mM ZnCl2, respectively.
The cells were then washed 3 times with PBS and incubated for 24 h in 1 ml fresh serum-free media containing 0.2%6 BSA. This 24-h conditioned medium was collected for SMase assays.
Harvesting of Cells and Conditioned Media—Following the incubations described above and in the figure legends, cells were placed on ice and the serum-free conditioned media was removed. The cells were washed two times with ice-cold 0.25 M sucrose and scraped into 0.3 ml and 3.0 ml of this sucrose solution per 35-mm and 100-mm dishes, respectively. Unless indicated otherwise, the scraped cells were disrupted by sonication on ice using three 5-second bursts (Branson 450 Sonifier), and the cellular homogenates were assayed for total protein by the method of Lowry et al. (22) and for SMase activity as described below. The conditioned media were spun at 800×g for 5 min to pellet any contaminating cells and concentrated six-fold using a Centriprep 30 (Amicon; Beverly, Mass.) concentrator (molecular weight cut off=30,000).
Typically, our assay reactions contained approximately 20 μg of cellular homogenate protein and a volume of conditioned media derived from a quantity of cells equivalent to approximately 50 μg of cellular protein.

L-SMase = target: T2, L-SMase (Mus musculus, UniProt Q04519); test: SMase assay of cell homogenate from J774 macrophages (SM micelles, pH 5.0); format: biochemical; details: 1,10-phenanthroline alone
T2 construct: endogenous in cells; host or cells: J774.A1 macrophages, sonicated cell homogenate
T2 sequence (Q04519 45-627): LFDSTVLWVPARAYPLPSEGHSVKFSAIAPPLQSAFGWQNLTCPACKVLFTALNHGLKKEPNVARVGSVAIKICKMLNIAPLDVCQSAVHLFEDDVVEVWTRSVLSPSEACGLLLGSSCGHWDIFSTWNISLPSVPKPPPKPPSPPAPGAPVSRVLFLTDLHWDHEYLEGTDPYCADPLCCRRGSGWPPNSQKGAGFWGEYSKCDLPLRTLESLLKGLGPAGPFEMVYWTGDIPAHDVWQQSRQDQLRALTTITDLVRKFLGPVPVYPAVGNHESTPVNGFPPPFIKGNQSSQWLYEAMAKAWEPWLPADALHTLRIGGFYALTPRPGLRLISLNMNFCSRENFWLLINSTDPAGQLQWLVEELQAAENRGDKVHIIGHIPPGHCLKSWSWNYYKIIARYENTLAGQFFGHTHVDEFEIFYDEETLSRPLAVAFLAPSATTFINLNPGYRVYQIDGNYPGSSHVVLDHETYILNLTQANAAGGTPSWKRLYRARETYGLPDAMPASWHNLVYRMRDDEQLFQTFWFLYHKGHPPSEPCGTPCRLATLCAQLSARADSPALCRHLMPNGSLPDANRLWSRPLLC
Protocol: FIGS. 14A-B. Sequential chelation and addition of Zn^2+ to secreted and intracellular SMase. Serum-free conditioned medium and a cell homogenate from J774 macrophages were prepared as described in “Experimental Procedures”. FIG. 14A, conditioned medium (CM) was assayed for SMase activity using 250 nM [^3H]sphingomyelin in Triton X-100 micelles in the presence of either 5 mM EDTA (first bar) or 0.1 mM ZnCl2 (second bar) for 1 h at 37° C. at pH 5.0. An aliquot of the Zn-activated conditioned medium was then incubated for 18 h in the presence of 10 mM EDTA, 10 mM 1,10-phenanthroline, and 0.6% Triton X-100 at 4° C. (EDTA PHNANTH) and then assayed for SMase activity (third bar). […]
(§1) SMase Assay—As previously described (Schissel et al., 1996), the standard 200-μl assay mixture consisted of up to 40 μl of sample (conditioned media or homogenized cells; see above) and a volume of assay buffer (0.1 M sodium acetate, pH 5.0) to bring the volume to 160 μl. […] The ceramide spots were scraped and directly counted to quantify [^3H]ceramide. Typically, the assay reactions contained approximately 20 μg of cellular homogenate protein and a volume of conditioned media derived from a quantity of cells equivalent to approximately 50 μg of cellular protein.

S-SMase [4] = target: T3, S-SMase (Mus musculus, UniProt Q04519); test: SMase assay of conditioned medium from J774 macrophages (SM micelles, pH 5.0); format: biochemical; details: 1,10-phenanthroline alone
T3 construct: endogenous in cells; host or cells: J774.A1 macrophages, serum-free conditioned medium
T3 sequence (Q04519 45-627): T2 sequence (Q04519 45-627)
Protocol: FIGS. 14A-B. Sequential chelation and addition of Zn^2+ to secreted and intracellular SMase. Serum-free conditioned medium and a cell homogenate from J774 macrophages were prepared as described in “Experimental Procedures”. FIG. 14A, conditioned medium (CM) was assayed for SMase activity using 250 nM [^3H]sphingomyelin in Triton X-100 micelles in the presence of either 5 mM EDTA (first bar) or 0.1 mM ZnCl2 (second bar) for 1 h at 37° C. at pH 5.0. An aliquot of the Zn-activated conditioned medium was then incubated for 18 h in the presence of 10 mM EDTA, 10 mM 1,10-phenanthroline, and 0.6% Triton X-100 at 4° C. (EDTA PHNANTH) and then assayed for SMase activity (third bar). After chelation, a portion of this partially inactivated conditioned medium was then dialyzed against zinc-containing buffer C (150 mM NaCl, 10 mM Tris-HCl, 1 mM ZnCl2, 0.6% Triton X-100, pH 7.4) for 18 h and then assayed for SMase activity (fourth bar). FIG. 14B, an aliquot of cell homogenate (Cell Homgn) was assayed for SMase activity in the presence of assay buffer alone (first bar), 5 mM EDTA (second bar), or 0.1 mM ZnCl2 (third bar). Another aliquot of cell homogenate was incubated for 8 h in the presence of 10 mM EDTA, 10 mm 1,10-phenanthroline, and 0.6% Triton X-100 (EDTA PHNANTH) at 4° C. and then assayed for SMase activity (fourth bar). An aliquot of this chelator-treated cell homogenate was then dialyzed against zinc-containing buffer C for 18 h and then assayed for SMase activity (fifth bar).
as §1

effect on ability of Zn2+ to activate S-SMase (S-SMase [1]): did not affect
Molecule: HS—CH2—R—CH(CH2—CH(CH3)2)—C)-Phe-Ala-NH2

stimulation of S-SMase hydrolysis of [3H]SM-LDL (S-SMase [2]; exogenously added): 2-3 fold
Molecule: lysophosphatidylcholine

accumulation of S-SMase in conditioned media (qualitative) [3]: no effect
Molecule: IL-4: human recombinant interleukin-4

S-SMase hydrolysis of [3H]SM-emulsions versus control emulsions (S-SMase [2]; emulsion-bound + free apo CIII): two-fold greater
S-SMase hydrolysis of [3H]SM-emulsions versus control emulsions (S-SMase [2]; emulsion-bound apo CIII only): approximately ten-fold more
Molecule: apo CIII: human native apolipoprotein CIII

effect on ability of Zn2+ to activate S-SMase (S-SMase [1]): did not affect
Molecule: HO—NH—CO—CH2—CH(CH2CH(CH3)2)—C)-Nal-Ala-NH—CH2—CH2—NH2

effect on ability of Zn2+ to activate S-SMase (S-SMase [1]): did not affect
Molecule: TIMP-1: tissue inhibitor of metalloproteinase-1, inhibitor of zinc-metalloproteinases

inhibition of L-SMase (L-SMase): does not inhibit
inhibition of S-SMase (S-SMase [4]): does not inhibit
Molecule: c1cnc2c(c1)ccc1cccnc12 [1,10-phenanthroline]

S-SMase hydrolysis of [3H]SM-LDL after treating the LDL with sPLA2 (S-SMase [2]; LDL pretreated 14 h at 37° C.): markedly enhanced
B1: sPLA2: human recombinant nonpancreatic soluble PLA2 (protein, UniProt P14555 21-144, looked up)
Phospholipase A2, membrane …: NLVNFHRMIKLTTGKEAALSYGFYGCHCGVGGRGSPKDATDRCCVTHDCCYKRLEKRGCGTKFLSYKFSNSGSRITCAKQDSCRSQLCECDKAAATCFARNKTTYNKKYQYYSNKHCRGSTPRC

Source: US6613322B2, “Method for treating a subject suffering from conditions associated with an extracellular zinc sphingomyelinase” (The Trustees of Columbia University in the City of New York, priority 1997, dated 2003)
